Values quoted from earlier work in patent publication US4112071A, “Antibiotic complex” (priority 1977, dated 1978).

What was measured:
animal and human cancers = settings: Cancer Chemother. Rep., Part 1, 58, 255 (1974)
[1] = test system: several animal tumor systems; settings: J. Antibiotics, April 1974, 254-259

In the case of CC(=O)[C@]1(O)Cc2c(O)c3c(c(O)c2[C@@H](O[C@H]2C[C@H](N)[C@H](O)[C@H](C)O2)C1)C(=O)c1c(O)cccc1C3=O [carminomycin I], the “antitumor activity in a variety of animal and human cancers” value (animal and human cancers) is given as “promising antitumor activity” and the “activity against several animal tumor systems” value [1] is given as “active”.
